Experimental data as given in patent US20200038399A1, “FORMULATIONS, METHODS, KIT, AND DOSAGE FORMS FOR TREATING BACTERIAL INFECTION” (Motif BioSciences Inc., priority 2016, published 2020).

Experiments:
S. pneumoniae 1/1 [1] = assay: MIC determination; format: cell-based, Streptococcus pneumoniae; conditions: S. pneumoniae 1/1, 18 hours at 37° C., 5% CO2; for MIC: Streptococcus pneumoniae, read-out: Minimum inhibitory concentrations (MIC)
Description: (§1) Minimum inhibitory concentration (MIC) determination.
(§2) In order to choose the appropriate concentrations to be tested in the checkerboard experiments, minimum inhibitory concentrations (MICs) were determined first. […] Table 6) in microtiter plates. Stock solutions (10 mg/ml) of reference antibiotics were prepared in DMSO (except for tobramycin, gentamicin, lomefloxacin, tetracycline) and stored at 4° C. The bacteria were grown in Mueller-Hinton Broth (BBL Mueller-Hinton Broth II, cation adjusted). S. pneumoniae was grown in Mueller-Hinton Broth supplemented with 5% (v/v) lysed sheep blood. For the growth of H. influenzae HTM (Haemophilus test medium) was used containing Mueller-Hinton broth, yeast extract ([…], Difco) and supplemented with NAD and hematin (HTM Supplement, Oxoid SR0158E). M. catarrhalis was grown in Brain Heart Infusion medium (Oxoid). The bacteria were incubated for 18 hours at 37° C. in ambient air except for S. pneumoniae, H. influenzae and M. catarrhalis, which were incubated in the presence of 5% CO2. The MIC was determined as the lowest concentration of an individual drug that lead to no visible growth.

[2] = system: Klebsiella pneumoniae ATCC 33495; assay: MIC determination; format: cell-based; conditions: K. pneumonia 33495, 18 hours at 37° C.; for MIC: Klebsiella pneumoniae, ATCC33495, read-out: Minimum inhibitory concentrations (MIC)
Description: as §1, §2

[3] = system: Streptococcus pneumoniae ATCC 49619; assay: MIC determination; format: cell-based; conditions: S. pneumoniae 49619, 18 hours at 37° C., 5% CO2; for MIC: Streptococcus pneumoniae, ATCC49619, read-out: Minimum inhibitory concentrations (MIC)
Description: as §1, §2

[4] = system: Moraxella catarrhalis RA 21; assay: MIC determination; format: cell-based; conditions: M. catarrhalis RA 21, 18 hours at 37° C., 5% CO2; for MIC: Moraxella catarrhalis, RA21, read-out: Minimum inhibitory concentrations (MIC)
Description: as §1, §2

[5] = system: Staphylococcus aureus ATCC 25923; assay: MIC determination; format: cell-based; conditions: S. aureus 25923, 18 hours at 37° C.; for MIC: Staphylococcus aureus, ATCC25923, read-out: Minimum inhibitory concentrations (MIC)
Description: as §1, §2

[6] = system: Haemophilus influenzae ATCC 49766; assay: MIC determination; format: cell-based; conditions: H. Influenza 49766, 18 hours at 37° C., 5% CO2; for MIC: Haemophilus influenzae, ATCC49766, read-out: Minimum inhibitory concentrations (MIC)
Description: as §1, §2

S. pneumoniae 1/1 [7] = assay: checkerboard synergy assay with iclaprim; format: cell-based, Streptococcus pneumoniae; conditions: antibiotic in combination with iclaprim
Description: (§3) The synergistic potential of iclaprim against Gram-positive and Gram-negative bacteria was determined using the checkerboard assay as described in Eliopoulos GM and Moellering, Jr. RC (1991), Antimicrobial combinations, pp. 432-492, in V. Lorian (ed.), Antibiotics in laboratory medicine, 3rd Ed., The Williams & Wilkins Co., Baltimore, the entire disclosure of which is herein incorporated by reference, allowing multiple test concentrations of iclaprim to be assayed in the presence of various concentrations of the other antibiotic in microtiter plates. The same growth media and conditions were used as described in 3.2 below.
(§4) Two different dilutions were used for iclaprim depending on the MIC determined for the bacterium. […] Iclaprim and the other antibiotic being tested were also dispensed alone in the last row and in the last column, respectively, as controls.
(§5) The Fractional Inhibitory Concentrations (FIC) for each added agent were calculated and used to determine the sum of FIC (ΣFIC) indicative of the synergistic potential of a given combination as described in Veyssier P. (1999), Inhibiteurs de la dihydrofolate reductase, nitrohétérocycles (furanes) et 8-hydroxyquinoleines, pp. 995-1027, in A. Bryskier (ed.), Antibiotiques agents antibatériens et antifongiques, 1st Ed., Ellipses Edition Marketing SA, Paris, the entire disclosure of which is herein incorporated by reference. Synergy was defined whereby the ΣFIC was <0.5, indifference (no synergy nor antagonism) whereby ΣFIC was ≥0.5 but ≤4, and antagonism whereby ΣFIC was >4. Additivity as a special form of indifference was defined whereby the ΣFIC was ≥0.5 but <1, for example as described in Stevens, D L et al. (1998), In vitro antimicrobial effects of various combinations of penicillin and clindamycin against four strains of Streptococcus pyogenes, J. Antimicrob. Chemother. 42: 1266-1268, the entire disclosure of which is herein incorporated by reference.

S. aureus 101 [8] = assay: checkerboard synergy assay with iclaprim; format: cell-based, Staphylococcus aureus; conditions: antibiotic in combination with iclaprim
Description: as §3, §4, §5

[9] = system: Klebsiella pneumoniae ATCC 33495; assay: checkerboard synergy assay with iclaprim; format: cell-based; conditions: antibiotic in combination with iclaprim; K. pneumoniae 33495
Description: as §3, §4, §5

[10] = system: Streptococcus pneumoniae ATCC 49619; assay: checkerboard synergy assay with iclaprim; format: cell-based; conditions: antibiotic in combination with iclaprim; S. pneumoniae 49619
Description: as §3, §4, §5

[11] = system: Moraxella catarrhalis RA 21; assay: checkerboard synergy assay with iclaprim; format: cell-based; conditions: antibiotic in combination with iclaprim; M. catarrhalis RA 21
Description: as §3, §4, §5

[12] = system: Staphylococcus aureus ATCC 25923; assay: checkerboard synergy assay with iclaprim; format: cell-based; conditions: antibiotic in combination with iclaprim; S. aureus 25923
Description: as §3, §4, §5

[13] = system: Haemophilus influenzae ATCC 49766; assay: checkerboard synergy assay with iclaprim; format: cell-based; conditions: antibiotic in combination with iclaprim; H. influenzae 49766
Description: as §3, §4, §5

S. aureus 101 [14] = assay: MIC determination; format: cell-based, Staphylococcus aureus; conditions: for MIC: Staphylococcus aureus, 101, 18 h, read-out: Minimum inhibitory concentrations (MIC)
Description: as §1, §2

Row | SMILES | Σ FIC (S. pneumoniae 1/1 [7]) | Σ FIC (S. aureus 101 [8]) | Con (Conclusion) [9] | Σ FIC [9] | Σ FIC [10] | Con (Conclusion) [11] | Σ FIC [11] | Σ FIC [12] | Con (Conclusion) [13] | Σ FIC [13] | MIC (S. pneumoniae 1/1 [1]) | MIC [2] | MIC [3] | MIC [4] | MIC [5] | MIC [6] | MIC (S. aureus 101 [14]) | other results
1 | CC1(C)S[C@@H]2[C@H](NC(=O)Cc3ccccc3)C(=O)N2[C@H]1C(=O)O [Penicillin G] | 0.75-1.13 | 1.00-1.25 | Ad (Additivity (Ad)) | 0.52-1.25 | 1.00-1.25 | Ind (Indifference (Ind)) | 1.13-1.50 | 1.00-1.25 | Ind (Indifference (Ind)) | 1.03-1.50 | – | – | – | – | – | – | – | Minimum inhibitory concentrations (MIC) (S. pneumoniae 1/1 [1]): 4 µg/mL; Minimum inhibitory concentrations (MIC) [2]: 128 µg/mL; Minimum inhibitory concentrations (MIC) [3]: 0.25 µg/mL; Minimum inhibitory concentrations (MIC) [4]: 16 µg/mL; Minimum inhibitory concentrations (MIC) [5]: 0.031 µg/mL; Minimum inhibitory concentrations (MIC) [6]: 0.25 µg/mL; Con (Conclusion) (S. pneumoniae 1/1 [7]): Ad (Additivity (Ad)); Con (Conclusion) (S. aureus 101 [8]): Ind (Indifference (Ind)); Con (Conclusion) [10]: Ind (Indifference (Ind)); Con (Conclusion) [12]: Ind (Indifference (Ind)); Minimum inhibitory concentrations (MIC) (S. aureus 101 [14]; S. aureus 101, 18 hours at 37° C.): 128 µg/mL
2 | CO[C@@]1(NC(=O)C(C(=O)O)c2ccc(O)cc2)C(=O)N2C(C(=O)O)=C(CSc3nnnn3C)CO[C@@H]21 (some centres unmarked) [Moxalactam] | 1.13-1.50 | 0.63-1.25 | Ad (Additivity (Ad)) | 0.75-1.25 | 1.00-1.25 | Ind (Indifference (Ind)) | 1.00-1.25 | 0.56-1.25 | Ind (Indifference (Ind)) | 1.06-1.50 | 4 µg/mL | 8 µg/mL | 1 µg/mL | 2 µg/mL | 1 µg/mL | 1 µg/mL | 4 µg/mL | –
3 | Cc1onc(-c2ccccc2)c1C(=O)N[C@@H]1C(=O)N2[C@@H]1SC(C)(C)[C@@H]2C(=O)O [Oxacillin] | 1.06-1.50 | 1.00-1.25 | Ind (Indifference (Ind)) | 1.01-1.50 | 1.06-1.50 | Ind (Indifference (Ind)) | 1.06-1.50 | 1.06-1.50 | Ind (Indifference (Ind)) | 1.00-1.25 | 32 µg/mL | > 128 µg/mL | 2 µg/mL | 32 µg/mL | 0.125 µg/mL | 16 µg/mL | 8 µg/mL | –
4 | COc1ccc(C[C@H](N)C(=O)N[C@H]2[C@@H](O)[C@H](n3cnc4c(N(C)C)ncnc43)O[C@@H]2CO)cc1 [Puromycin] | 1.13-1.50 | 1.13-1.50 | Ind (Indifference (Ind)) | 1.01-1.50 | 0.63-1.25 | Ind (Indifference (Ind)) | 1.06-1.50 | 1.06-1.50 | Ind (Indifference (Ind)) | 1.06-1.50 | 8 µg/mL | > 128 µg/mL | 8 µg/mL | 4 µg/mL | 32 µg/mL | 8 µg/mL | 16 µg/mL | –
5 | CC(=O)O[C@H]1C[C@@]2(C)[C@@H](C[C@@H](O)[C@H]3[C@@]4(C)CC[C@@H](O)[C@@H](C)[C@@H]4CC[C@@]32C)/C1=C(\CCC=C(C)C)C(=O)O [Fusidic acid] | 1.06-1.50 | 1.06-1.50 | Ind (Indifference (Ind)) | 1.00-1.25 | 1.13-1.50 | Ind (Indifference (Ind)) | 1.00-1.00 | 2.03-2.50 | Ind (Indifference (Ind)) | 1.06-1.50 | 8 µg/mL | > 128 µg/mL | 4 µg/mL | < 0.008 µg/mL | 0.25 µg/mL | 1 µg/mL | 0.125 µg/mL | –
6 | [H]/N=C(/N)N[C@H]1[C@H](O)[C@@H](O)[C@H](O[C@@H]2O[C@@H](C)[C@](O)(C=O)[C@H]2O[C@@H]2O[C@@H](CO)[C@H](O)[C@@H](O)[C@@H]2NC)[C@@H](N/C(N)=N\[H])[C@@H]1O [Streptomycin] | 1.01-1.50 | 1.13-1.50 | Ad (Additivity (Ad)) | 0.63-1.06 | 1.00-1.25 | Ind (Indifference (Ind)) | 1.06-1.50 | 1.13-1.50 | Ind (Indifference (Ind)) | 1.02-1.50 | > 128 µg/mL | 64 µg/mL | 32 µg/mL | 8 µg/mL | 4 µg/mL | 0.5 µg/mL | 8 µg/mL | –
7 | CO[C@@H]1[C@@H](OC(N)=O)[C@@H](O)[C@H](Oc2ccc3c(O)c(NC(=O)c4ccc(O)c(CC=C(C)C)c4)c(=O)oc3c2C)OC1(C)C [Novobiocin] | 1.03-1.50 | 1.03-1.50 | Ind (Indifference (Ind)) | 1.00-1.25 | 0.75-1.13 | Ind (Indifference (Ind)) | 1.00-1.05 | 1.02-1.50 | Ind (Indifference (Ind)) | 1.03-1.50 | 4 µg/mL | 128 µg/mL | 2 µg/mL | 0.25 µg/mL | 0.5 µg/mL | 0.25 µg/mL | 0.25 µg/mL | –
8 | NC[C@H]1O[C@H](O[C@H]2[C@H](O)[C@@H](O[C@H]3O[C@H](CO)[C@@H](O)[C@H](N)[C@H]3O)[C@H](N)C[C@@H]2N)[C@H](O)[C@@H](O)[C@@H]1O [Kanamycin] | 1.02-1.50 | 1.01-1.50 | Ad (Additivity (Ad)) | 0.63-0.75 | 1.00-1.25 | Ind (Indifference (Ind)) | 1.00-1.25 | 1.06-1.50 | Ind (Indifference (Ind)) | 1.02-1.13 | 128 µg/mL | 4 µg/mL | 32 µg/mL | 4 µg/mL | 2 µg/mL | 2 µg/mL | > 128 µg/mL | –
